Experimental data reported in patent US20180249707A1, “METHOD OF CONTROLLING ALGAE IN A BODY OF WATER” (priority 2013, published 2018).

Columns and labels:
[1] = system: M. aeruginosa UTEX 2385; assay: MIC 96-well microtiter plate assay in BG-11, 10 days; assay type: cell-based, Microcystis aeruginosa; settings: for In vivo chlorophyll a of M. aeruginosa: 10 days, initial 0.1 ug/L
Procedure: MICs for the samples against M. aeruginosa were determined in a standard 96-well microtiter plate assay in BG-11 with a starting inoculum of ˜1×10^5 cells/mL. Algae plates were incubated for 10 days. MIC concentrations were determined visually, in vivo chlorophyll a was determined fluorometrically, and cell density was determined via direct counting. Samples were tested in duplicate.

[2] = system: Cladophora sp.; assay: 15-day flask exposure of Cladophora sp. to DDA and Cutrine-Plus; assay type: cell-based; settings: at concentrations comparable to Cutrine-Plus
Procedure: The experiment was conducted for 15 days and was initiated using 100 mL BG-11 medium contained in 200 mL flasks. […] The experiment was initiated by exposing the algae to 0.1, 0.2, 0.4, 0.8, and 1.6 mg/L as DDA, 0.2, 0.6, 1.0 mg Cu/L Cutrine®-Plus, and combinations of DDA and Cutrine®-Plus. […] The solution was heated in a water bath and diluted to 70 mg/L using warmed deionized water. The concentration of DMSO was approximately 350 mg/L in the test beakers. Cutrine®-Plus stock solution was made at 50 mg/L using deionized water. Three replicates of each exposure concentration, along with three replicates of an untreated reference were tested. Each sample was Maintained at room temperature with 12-hours of light and 12-h dark photoperiod. […] 15 days after exposure. The Bars in FIG. 3 sharing the same letter are not different according to Fishers Protected LSD test at p≤0.05 significance level.

[3] = system: Microcystis aeruginosa; assay: 15-day flask exposure of Microcystis aeruginosa to DDA and Cutrine-Plus; assay type: cell-based; settings: for Cell Densities of Microcystis aeruginosa 15 days after: initial 4.5×10^4 cells/mL
Procedure: The experiment was conducted for 15 days and was initiated using 100 mL BG-11 medium contained in 200 mL flasks. […] The experiment was initiated by exposing the algae to 0.1, 0.2, 0.4, 0.8, and 1.6 mg/L as DDA, 0.2, 0.6, 1.0 mg Cu/L Cutrine®-Plus, and combinations of DDA and Cutrine®-Plus. […] The solution was heated in a water bath and diluted to 70 mg/L using warmed deionized water. The concentration of DMSO was approximately 350 mg/L in the test beakers. Cutrine®-Plus stock solution was made at 50 mg/L using deionized water. Three replicates of each exposure concentration, along with three replicates of an untreated reference were tested. Each sample was Maintained at room temperature with 12-hours of light and 12-hours dark photo period.

[4] = Solubility remark on stock solution preparation; assay type: physicochemical; settings: stock solution made using 2% DMSO solution, heated

Structure (SMILES) | In vivo chlorophyll a of M. aeruginosa ([1]; 0.031 active ppm) | In vivo chlorophyll a of M. aeruginosa ([1]; 0.063 active ppm) | In vivo chlorophyll a of M. aeruginosa ([1]; 0.125 active ppm) | In vivo chlorophyll a of M. aeruginosa ([1]; 0.25 active ppm) | In vivo chlorophyll a of M. aeruginosa ([1]; 0.5 active ppm) | MIC ([1]; Microcystis aeruginosa, UTEX2385, 240 h, determined visually, 10 days incubation, read-out: MIC values per individual sample, M. aeruginosa) | effectiveness as an algaecide on Cladophora sp. [2] | log reduction in M. aeruginosa cells ([3]; 0.4 mg/L, 15 days after start, compared to untreated reference) | Chlorophyll a content of M. aeruginosa compared to untreated reference algae ([3]; 0.2 to 1.6 ppm (mg/L), 15 days after start, p<0.01) | Cell Densities of Microcystis aeruginosa 15 days after ([3]; DDA 0.1 mg/L, 15 days) | Cell Densities of Microcystis aeruginosa 15 days after ([3]; DDA 0.2 mg/L, 15 days) | Cell Densities of Microcystis aeruginosa 15 days after ([3]; DDA 0.4 mg/L, 15 days) | Cell Densities of Microcystis aeruginosa 15 days after ([3]; DDA 0.8 mg/L, 15 days) | Cell Densities of Microcystis aeruginosa 15 days after ([3]; DDA 1.6 mg/L, 15 days) | concentration necessary to achieve similar results as Cutrine-Plus (cell count data) ([3]; M. aeruginosa control, 15 days) | effectiveness as an algaecide on Microcystis aeruginosa ([3]; at concentrations comparable to Cutrine-Plus) | solubility [4]
CCCCCCCCCCCCN.Cl [1-dodecylammonium chloride] | 7.20 µg/L | 4.65 µg/L | 2.05 µg/L | 0.15 µg/L | 0.00 µg/L | 0.25 µg/mL | – | – | – | – | – | – | – | – | – | – | –
CCCCCCCCCCCCN [dodecylamine] | 7.85 µg/L | 5.75 µg/L | 2.60 µg/L | 0.35 µg/L | 0.00 µg/L | – | effective | 1 log | reduced | 5.2 × 10^6 cells/mL | 6.7 × 10^6 cells/mL | 8.0 × 10^5 cells/mL | <10000 cells/mL | <10000 cells/mL | 0.8 mg/L | effective | low solubility
